Tested on: wild-type progesterone receptor (pSG5-Gal4-DBD-PR) and its mutants
Type: cell-based
Settings: for activity in PR mutants as compared to wild-type PR, high ligand concentration: HeLa, Gal4-DBD-PR LBD mutants, ligand 10 μM

For C[C@]12CCC(=O)C=C1CC[C@@H]1[C@@H]2[C@@H](O)C[C@]2(C=O)[C@@H](C(=O)CO)CC[C@@H]12 [AS4, Aldosterone], which “activity in PR mutants as compared to wild-type PR, high ligand concentration” value is on record?
The value was “reduced activity”.

Which “activity in PR mutants as compared to wild-type PR” value does the source give for C[C@@H]1C[C@H]2[C@@H]3CCC4=CC(=O)C=C[C@]4(C)[C@@]3(F)[C@@H](O)C[C@]2(C)[C@@]1(O)C(=O)CO [DEX, Dexamethasone] here?
Its value is “lowered below DMSO control by most mutations”.

C[C@]12CCC(=O)C[C@@H]1CC[C@@H]1[C@@H]2CC[C@]2(C)[C@@H](O)CC[C@@H]12 [DHT, Dihydrotestosterone] was tested. Which “activity in PR mutants as compared to wild-type PR, high ligand concentration” value did it give?
Its value is “reduced activity”.

C[C@]12CCC(=O)C=C1CC[C@@H]1[C@@H]2[C@@H](O)C[C@@]2(C)[C@H]1CC[C@]2(O)C(=O)CO [HCY, Cortisol] was tested. Which “activity in PR mutants as compared to wild-type PR, high ligand concentration” value did it give?
The value was “reduced activity”.

For C[C@]12C=CC(=O)C=C1CC[C@@H]1[C@@H]2C(=O)C[C@@]2(C)[C@H]1CC[C@]2(O)C(=O)CO [PDN, Prednisone], which “activity in PR mutants as compared to wild-type PR, high ligand concentration” value is on record?
Its value is “additional reduction”.

How did the “activity in PR mutants as compared to wild-type PR” value turn out when CC(=O)[C@H]1CC[C@H]2[C@@H]3CCC4=CC(=O)CC[C@]4(C)[C@H]3CC[C@]12C [STR, Progesterone] was run?
Its value is “lowered in all mutants”.

From article PMC11151858 (RSC Chemical Biology, 2024)
